This is an account of results in patent publication US8415271B2, “Biofertilizer formulation” (priority 2007, dated 2013).

This assay concerns wheat. Put plainly: Field grown wheat, harvest parameters. In kind it is in vivo, Triticum aestivum. The conditions noted are these: seeds not coated. The method, then: Effect of the psychrorphilic biofertilizer was tested on field conditions on wheat cultivation in Victoria City, Temuco, Chile. Wheat seeds were disinfected and coated with the psychrophilic bacterial biofertilizer of the present invention as described in Example 3. Control seeds were disinfected and treated with water. A field of one hectare was directly sowed with the seeds using a random block experimental design with four repetitions per treatments. Further, total yield after the harvest was measured and the yield per unit area of the crop field was calculated.

Turning to `O=P(=O)OP(=O)=O` [Strain P2O5, P2O5], the “Weight 1000 grains” value runs as follows: (50 Kg P2O5/ha) 33 ± 3 g; (100 Kg P2O5/ha) 37 ± 3 g; (150 Kg P2O5/ha) 35 ± 3 g. Further, the Yield came out at 4.8 ± 0.5 ton/ha (50 Kg P2O5/ha), 5.1 ± 0.3 ton/ha (100 Kg P2O5/ha) and 5.0 ± 0.4 ton/ha (150 Kg P2O5/ha).
